Test results from the NIST ThermoML archive (doi:10.1016/j.jct.2016.03.026).
Where “and” joins values, the source holds several entries; their conditions need not be identical. Equal entries are not always repeated.

Assay: xn = mol fraction of the nth substance listed
Conditions: Fluid (supercritical or subcritical phases), Frequency=5 MHz, Pulse-echo method

O=C=O [carbon dioxide] + CO
Conditions	speed of sound
298.13 K, 40050 kPa, x1 = 0.7534	817.8 m/s
298.13 K, 44960 kPa, x1 = 0.925	802 m/s
298.13 K, 44980 kPa, x1 = 0.925	802.5 m/s
298.13 K, 45000 kPa, x1 = 0.8502	812.9 m/s
298.13 K, 45000 kPa, x1 = 0.925	803.5 m/s
298.13 K, 45020 kPa, x1 = 0.7534	848.9 m/s
298.13 K, 45020 kPa, x1 = 0.925	803 m/s
298.13 K, 49980 kPa, x1 = 0.925	832.4 m/s and 833.5 m/s
298.13 K, 49990 kPa, x1 = 0.925	832.8 m/s
298.13 K, 50010 kPa, x1 = 0.925	833.6 m/s
298.13 K, 50070 kPa, x1 = 0.7534	878.2 m/s
298.13 K, 50080 kPa, x1 = 0.8502	843 m/s
298.13 K, 54890 kPa, x1 = 0.7534	904.5 m/s
298.13 K, 54910 kPa, x1 = 0.8502	869.9 m/s
298.13 K, 54940 kPa, x1 = 0.925	860.9 m/s
298.13 K, 54950 kPa, x1 = 0.925	860.2 m/s
298.13 K, 54970 kPa, x1 = 0.925	861.2 m/s
298.13 K, 55000 kPa, x1 = 0.925	860.7 m/s
298.13 K, 59950 kPa, x1 = 0.8502	896.4 m/s
298.13 K, 59970 kPa, x1 = 0.925	886.8 m/s
298.13 K, 60000 kPa, x1 = 0.925	887 m/s
298.13 K, 60010 kPa, x1 = 0.925	887.7 m/s
298.13 K, 60020 kPa, x1 = 0.925	887.7 m/s
298.13 K, 60230 kPa, x1 = 0.7534	932.1 m/s
298.13 K, 64680 kPa, x1 = 0.7534	953.8 m/s
298.13 K, 64950 kPa, x1 = 0.925	912 m/s
298.13 K, 64960 kPa, x1 = 0.925	911.8 m/s
298.13 K, 64990 kPa, x1 = 0.925	912.4 m/s
298.13 K, 65010 kPa, x1 = 0.925	911.9 m/s
298.13 K, 65100 kPa, x1 = 0.8502	922 m/s
298.13 K, 69930 kPa, x1 = 0.8502	944.8 m/s
298.13 K, 69960 kPa, x1 = 0.925	935.2 m/s
298.13 K, 69970 kPa, x1 = 0.925	935.8 m/s
298.13 K, 69980 kPa, x1 = 0.925	935.3 m/s
298.13 K, 70000 kPa, x1 = 0.925	936 m/s
298.13 K, 70030 kPa, x1 = 0.7534	978.8 m/s
298.13 K, 74960 kPa, x1 = 0.925	957.7 m/s
298.13 K, 74970 kPa, x1 = 0.925	957.9 m/s and 958.4 m/s
298.13 K, 75000 kPa, x1 = 0.925	958.5 m/s
298.13 K, 75120 kPa, x1 = 0.8502	968.2 m/s
298.13 K, 75550 kPa, x1 = 0.7534	1003.2 m/s
298.13 K, 79950 kPa, x1 = 0.925	979.9 m/s
298.13 K, 79970 kPa, x1 = 0.925	979.7 m/s
298.13 K, 79990 kPa, x1 = 0.8502	989 m/s
298.13 K, 79990 kPa, x1 = 0.925	979.4 m/s
298.13 K, 80530 kPa, x1 = 0.7534	1024.4 m/s
298.13 K, 89880 kPa, x1 = 0.8502	1029.2 m/s
298.13 K, 89960 kPa, x1 = 0.925	1019.7 m/s
298.13 K, 89980 kPa, x1 = 0.925	1020.4 m/s
298.13 K, 90000 kPa, x1 = 0.925	1020 m/s and 1020.4 m/s
298.13 K, 90430 kPa, x1 = 0.7534	1064.1 m/s
298.13 K, 99830 kPa, x1 = 0.7534	1098.9 m/s
298.13 K, 99970 kPa, x1 = 0.925	1057.9 m/s
298.13 K, 99990 kPa, x1 = 0.925	1057.5 m/s
298.13 K, 100010 kPa, x1 = 0.8502	1067.3 m/s
298.13 K, 100010 kPa, x1 = 0.925	1057.5 m/s
298.13 K, 100040 kPa, x1 = 0.925	1057.3 m/s
298.13 K, 109890 kPa, x1 = 0.8502	1102.7 m/s
298.13 K, 109950 kPa, x1 = 0.925	1092.7 m/s
298.13 K, 109980 kPa, x1 = 0.925	1093.2 m/s
298.13 K, 109990 kPa, x1 = 0.925	1092.8 m/s and 1093.2 m/s
298.13 K, 110320 kPa, x1 = 0.7534	1136.1 m/s
298.13 K, 119500 kPa, x1 = 0.8502	1135.1 m/s
298.13 K, 119930 kPa, x1 = 0.925	1126 m/s
298.13 K, 119960 kPa, x1 = 0.925	1126.1 m/s
298.13 K, 119990 kPa, x1 = 0.925	1125.8 m/s
298.13 K, 120000 kPa, x1 = 0.925	1126 m/s
298.13 K, 120120 kPa, x1 = 0.7534	1168.5 m/s
298.13 K, 129960 kPa, x1 = 0.925	1157.1 m/s
298.13 K, 129970 kPa, x1 = 0.925	1157.2 m/s and 1157.6 m/s
298.13 K, 130000 kPa, x1 = 0.925	1157.5 m/s
298.13 K, 139110 kPa, x1 = 0.7534	1226.8 m/s
298.13 K, 139980 kPa, x1 = 0.925	1186.8 m/s and 1187.3 m/s
298.13 K, 139990 kPa, x1 = 0.925	1187.1 m/s
298.13 K, 140030 kPa, x1 = 0.925	1187.4 m/s
298.13 K, 140060 kPa, x1 = 0.8502	1198.2 m/s
298.13 K, 149950 kPa, x1 = 0.925	1215.3 m/s and 1215.7 m/s
298.13 K, 149960 kPa, x1 = 0.925	1215.5 m/s
298.13 K, 149990 kPa, x1 = 0.925	1215.1 m/s
298.13 K, 159590 kPa, x1 = 0.7534	1284.3 m/s
298.13 K, 159960 kPa, x1 = 0.925	1242.8 m/s
298.13 K, 159970 kPa, x1 = 0.925	1242.8 m/s
298.13 K, 159980 kPa, x1 = 0.925	1242.2 m/s
298.13 K, 159990 kPa, x1 = 0.925	1242.6 m/s
298.13 K, 160550 kPa, x1 = 0.8502	1255.2 m/s
298.13 K, 169970 kPa, x1 = 0.925	1268.9 m/s
298.13 K, 169980 kPa, x1 = 0.925	1268.9 m/s
298.13 K, 169990 kPa, x1 = 0.925	1268.1 m/s
298.13 K, 170010 kPa, x1 = 0.925	1268.7 m/s
298.13 K, 178270 kPa, x1 = 0.8502	1301.3 m/s
298.13 K, 179990 kPa, x1 = 0.925	1293.2 m/s
298.13 K, 180020 kPa, x1 = 0.925	1293.8 m/s and 1294 m/s
298.13 K, 180060 kPa, x1 = 0.925	1294.1 m/s
298.13 K, 180370 kPa, x1 = 0.7534	1338.1 m/s
298.13 K, 189940 kPa, x1 = 0.925	1316.8 m/s
298.13 K, 189950 kPa, x1 = 0.925	1317.9 m/s
298.13 K, 189970 kPa, x1 = 0.925	1317.8 m/s
298.13 K, 190010 kPa, x1 = 0.925	1317.9 m/s
298.14 K, 44940 kPa, x1 = 0.9803	798 m/s
298.14 K, 50050 kPa, x1 = 0.9803	829.6 m/s
298.14 K, 54980 kPa, x1 = 0.9803	857.8 m/s
298.14 K, 60140 kPa, x1 = 0.9803	885.4 m/s
298.14 K, 64990 kPa, x1 = 0.9803	909.9 m/s
298.14 K, 70210 kPa, x1 = 0.9803	935 m/s
298.14 K, 75300 kPa, x1 = 0.9803	958.1 m/s
298.14 K, 80240 kPa, x1 = 0.9803	979.6 m/s
298.14 K, 89800 kPa, x1 = 0.9803	1018.7 m/s
298.14 K, 100450 kPa, x1 = 0.9803	1059.1 m/s
298.14 K, 109890 kPa, x1 = 0.9803	1092.5 m/s
298.14 K, 120160 kPa, x1 = 0.9803	1126.5 m/s
298.14 K, 130400 kPa, x1 = 0.9803	1158.4 m/s
298.14 K, 139810 kPa, x1 = 0.9803	1185.8 m/s
298.14 K, 150170 kPa, x1 = 0.9803	1215.7 m/s
298.14 K, 160470 kPa, x1 = 0.9803	1243.6 m/s
304.19 K, 24950 kPa, x1 = 0.97	621 m/s
304.19 K, 29960 kPa, x1 = 0.97	668.7 m/s
304.19 K, 34880 kPa, x1 = 0.97	709.6 m/s
304.19 K, 39930 kPa, x1 = 0.97	747.2 m/s
304.19 K, 44970 kPa, x1 = 0.97	781.3 m/s
304.19 K, 50020 kPa, x1 = 0.97	812.8 m/s
304.19 K, 54970 kPa, x1 = 0.97	841.5 m/s
304.19 K, 59970 kPa, x1 = 0.97	868.6 m/s
